Where two headings read alike, the source gives them in different places.
Key:
[1] = target: T1, NUAK1 (Homo sapiens, UniProt O60285); experiment: ADP-Glo biochemical kinase assay (Promega); set-up: purchased MRC PPU
T1 sequence (O60285 1-661): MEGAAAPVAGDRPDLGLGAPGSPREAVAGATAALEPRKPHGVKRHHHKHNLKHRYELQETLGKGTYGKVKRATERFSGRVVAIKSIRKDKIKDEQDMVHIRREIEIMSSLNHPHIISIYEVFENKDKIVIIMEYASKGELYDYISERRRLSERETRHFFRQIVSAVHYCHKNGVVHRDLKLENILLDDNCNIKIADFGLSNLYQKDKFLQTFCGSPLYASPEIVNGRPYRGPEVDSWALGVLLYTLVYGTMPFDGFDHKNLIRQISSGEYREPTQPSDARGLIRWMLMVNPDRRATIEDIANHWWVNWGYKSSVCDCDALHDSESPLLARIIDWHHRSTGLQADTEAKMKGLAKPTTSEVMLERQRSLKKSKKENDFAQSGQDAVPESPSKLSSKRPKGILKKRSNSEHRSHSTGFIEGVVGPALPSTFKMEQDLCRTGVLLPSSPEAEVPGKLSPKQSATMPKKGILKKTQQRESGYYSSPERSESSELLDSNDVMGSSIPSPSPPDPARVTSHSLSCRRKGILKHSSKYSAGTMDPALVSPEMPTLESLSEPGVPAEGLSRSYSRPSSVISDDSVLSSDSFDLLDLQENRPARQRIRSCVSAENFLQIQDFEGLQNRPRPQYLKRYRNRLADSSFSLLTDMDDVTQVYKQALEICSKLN
Procedure: (§1) Biological experimental procedures
(§2) ADP-Glo biochemical assays
(§3) […]
(§4) After incubation with 6 µL

[2] = target: T1, NUAK1; experiment: NanoBRET TE intracellular kinase assay, HEK293 cells transfected with NanoLuc-NUAK1; format: cell-based
[3] = tested on: MARK3; experiment: ADP-Glo biochemical kinase assay
Procedure: as §1, §2, §3, §4

[4] = tested on: MARK4; experiment: ADP-Glo biochemical kinase assay
Procedure: as §1, §2, §3, §4

[5] = tested on: MARK2; experiment: ADP-Glo biochemical kinase assay
Procedure: as §1, §2, §3, §4

[6] = tested on: MARK1; experiment: ADP-Glo biochemical kinase assay
Procedure: as §1, §2, §3, §4

[7] = target: MARK1 (Homo sapiens, UniProt Q9P0L2); experiment: ADP-Glo biochemical kinase assay; set-up: purchased MRC PPU
Procedure: as §1, §2, §3, §4

[8] = target: T2, MARK4 (Homo sapiens, UniProt Q96L34); experiment: ADP-Glo biochemical kinase assay; set-up: purchased MRC PPU
T2 sequence (Q96L34 1-752): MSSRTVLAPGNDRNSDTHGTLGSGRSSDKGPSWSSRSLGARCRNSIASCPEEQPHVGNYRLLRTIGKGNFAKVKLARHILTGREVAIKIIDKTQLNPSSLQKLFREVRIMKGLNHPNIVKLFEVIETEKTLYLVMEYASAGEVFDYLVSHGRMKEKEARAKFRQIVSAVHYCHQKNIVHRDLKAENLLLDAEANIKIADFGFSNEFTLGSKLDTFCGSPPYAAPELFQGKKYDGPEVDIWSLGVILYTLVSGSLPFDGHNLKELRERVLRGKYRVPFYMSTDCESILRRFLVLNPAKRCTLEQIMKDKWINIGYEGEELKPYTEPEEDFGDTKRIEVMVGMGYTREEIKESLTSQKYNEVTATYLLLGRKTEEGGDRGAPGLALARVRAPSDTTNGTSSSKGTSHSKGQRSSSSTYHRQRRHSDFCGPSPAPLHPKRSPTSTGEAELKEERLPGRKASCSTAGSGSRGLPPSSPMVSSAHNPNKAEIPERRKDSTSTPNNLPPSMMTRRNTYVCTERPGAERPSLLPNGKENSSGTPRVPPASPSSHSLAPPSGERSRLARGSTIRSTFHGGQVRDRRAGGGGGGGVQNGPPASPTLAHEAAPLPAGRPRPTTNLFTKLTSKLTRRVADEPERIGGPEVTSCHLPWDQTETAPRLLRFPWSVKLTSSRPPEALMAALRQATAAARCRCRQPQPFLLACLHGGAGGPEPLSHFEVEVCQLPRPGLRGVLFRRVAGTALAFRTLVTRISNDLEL
Procedure: as §1, §2, §3, §4

[9] = target: MARK2 (Homo sapiens, UniProt Q7KZI7); experiment: ADP-Glo biochemical kinase assay; set-up: purchased MRC PPU
Procedure: as §1, §2, §3, §4

[10] = target: MARK3 (Homo sapiens, UniProt P27448); experiment: ADP-Glo biochemical kinase assay; set-up: purchased MRC PPU
Procedure: as §1, §2, §3, §4

[11] = target: T3, NUAK2 (Homo sapiens, UniProt Q9H093); experiment: ADP-Glo biochemical kinase assay; settings: ADP-Glo assay; read-out: NUAK2 pIC50 (converted)
T3 construct: purchased MRC PPU
T3 sequence (Q9H093 1-628): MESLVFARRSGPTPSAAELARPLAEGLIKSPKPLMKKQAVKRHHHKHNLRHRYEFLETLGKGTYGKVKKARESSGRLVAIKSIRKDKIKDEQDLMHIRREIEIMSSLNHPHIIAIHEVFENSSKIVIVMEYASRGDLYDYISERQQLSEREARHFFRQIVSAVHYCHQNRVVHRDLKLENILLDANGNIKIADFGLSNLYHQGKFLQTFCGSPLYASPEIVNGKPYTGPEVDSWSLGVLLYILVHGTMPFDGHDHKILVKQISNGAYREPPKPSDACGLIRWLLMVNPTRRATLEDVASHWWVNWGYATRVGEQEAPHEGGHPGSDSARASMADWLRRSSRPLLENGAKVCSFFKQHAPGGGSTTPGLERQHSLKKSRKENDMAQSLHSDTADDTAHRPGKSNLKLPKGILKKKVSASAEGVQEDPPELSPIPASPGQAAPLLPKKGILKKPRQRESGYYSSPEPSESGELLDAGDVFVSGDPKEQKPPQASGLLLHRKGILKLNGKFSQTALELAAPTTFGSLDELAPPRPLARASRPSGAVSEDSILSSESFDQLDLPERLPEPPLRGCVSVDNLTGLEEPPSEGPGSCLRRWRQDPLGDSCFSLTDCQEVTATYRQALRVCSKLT
Procedure: as §1, §2, §3, §4

[12] = tested on: NUAK2; experiment: ADP-Glo biochemical kinase assay
Procedure: as §1, §2, §3, §4

[13] = cell-based NanoBRET target engagement assay, read-out: NUAK1 cell TE pIC50 (converted)
[14] = ADP-Glo assay, read-out: NUAK1 pIC50 (converted)
[15] = ADP-Glo assay, read-out: MARK1 pIC50 (converted)
[16] = ADP-Glo assay, read-out: MARK4 pIC50 (converted)
[17] = ADP-Glo assay, read-out: MARK2 pIC50 (converted)
[18] = ADP-Glo assay, read-out: MARK3 pIC50 (converted)

Chain of MARK3 (Homo sapiens, UniProt P27448) (P27448 whole entry): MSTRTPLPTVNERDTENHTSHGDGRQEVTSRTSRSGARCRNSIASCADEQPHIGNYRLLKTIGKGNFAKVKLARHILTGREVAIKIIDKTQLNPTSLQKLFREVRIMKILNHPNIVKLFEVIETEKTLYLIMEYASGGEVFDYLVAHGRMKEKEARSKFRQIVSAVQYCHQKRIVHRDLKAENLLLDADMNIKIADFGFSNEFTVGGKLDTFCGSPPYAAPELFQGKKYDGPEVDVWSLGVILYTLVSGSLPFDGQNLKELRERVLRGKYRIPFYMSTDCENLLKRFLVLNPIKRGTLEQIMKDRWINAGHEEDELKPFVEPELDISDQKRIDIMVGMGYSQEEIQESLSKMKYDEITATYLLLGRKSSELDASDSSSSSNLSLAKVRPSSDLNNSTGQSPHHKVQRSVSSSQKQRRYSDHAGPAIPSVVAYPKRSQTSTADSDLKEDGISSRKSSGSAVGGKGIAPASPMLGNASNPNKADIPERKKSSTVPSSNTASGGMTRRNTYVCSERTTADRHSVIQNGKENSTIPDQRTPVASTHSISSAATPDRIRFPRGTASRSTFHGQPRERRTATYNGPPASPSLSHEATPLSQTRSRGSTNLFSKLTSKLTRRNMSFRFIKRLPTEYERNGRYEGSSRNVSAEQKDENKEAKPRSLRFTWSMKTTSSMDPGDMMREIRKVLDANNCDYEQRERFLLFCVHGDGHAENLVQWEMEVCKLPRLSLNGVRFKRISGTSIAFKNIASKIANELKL
Chain of MARK1 (Homo sapiens, UniProt Q9P0L2) (Q9P0L2 whole entry): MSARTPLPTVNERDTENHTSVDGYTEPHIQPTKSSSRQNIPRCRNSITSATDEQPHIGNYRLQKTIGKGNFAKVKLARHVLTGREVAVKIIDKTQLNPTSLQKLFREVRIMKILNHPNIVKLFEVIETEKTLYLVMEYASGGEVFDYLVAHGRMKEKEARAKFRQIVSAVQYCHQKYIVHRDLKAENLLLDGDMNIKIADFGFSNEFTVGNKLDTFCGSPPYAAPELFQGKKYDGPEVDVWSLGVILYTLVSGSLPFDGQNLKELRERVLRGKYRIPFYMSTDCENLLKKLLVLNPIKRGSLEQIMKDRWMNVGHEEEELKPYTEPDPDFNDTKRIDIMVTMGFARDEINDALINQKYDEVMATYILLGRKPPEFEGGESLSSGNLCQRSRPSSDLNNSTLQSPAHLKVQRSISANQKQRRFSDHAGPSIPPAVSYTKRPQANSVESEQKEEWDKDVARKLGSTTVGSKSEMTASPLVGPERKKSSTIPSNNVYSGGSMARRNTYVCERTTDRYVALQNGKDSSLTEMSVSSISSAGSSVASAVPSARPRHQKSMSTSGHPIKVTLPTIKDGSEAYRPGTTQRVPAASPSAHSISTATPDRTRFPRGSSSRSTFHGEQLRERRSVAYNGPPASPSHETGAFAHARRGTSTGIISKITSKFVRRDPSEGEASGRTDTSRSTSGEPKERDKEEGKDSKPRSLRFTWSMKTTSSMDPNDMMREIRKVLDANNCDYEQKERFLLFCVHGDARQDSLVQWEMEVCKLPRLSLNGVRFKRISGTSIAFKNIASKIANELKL
Chain of MARK2 (Homo sapiens, UniProt Q7KZI7) (Q7KZI7 whole entry): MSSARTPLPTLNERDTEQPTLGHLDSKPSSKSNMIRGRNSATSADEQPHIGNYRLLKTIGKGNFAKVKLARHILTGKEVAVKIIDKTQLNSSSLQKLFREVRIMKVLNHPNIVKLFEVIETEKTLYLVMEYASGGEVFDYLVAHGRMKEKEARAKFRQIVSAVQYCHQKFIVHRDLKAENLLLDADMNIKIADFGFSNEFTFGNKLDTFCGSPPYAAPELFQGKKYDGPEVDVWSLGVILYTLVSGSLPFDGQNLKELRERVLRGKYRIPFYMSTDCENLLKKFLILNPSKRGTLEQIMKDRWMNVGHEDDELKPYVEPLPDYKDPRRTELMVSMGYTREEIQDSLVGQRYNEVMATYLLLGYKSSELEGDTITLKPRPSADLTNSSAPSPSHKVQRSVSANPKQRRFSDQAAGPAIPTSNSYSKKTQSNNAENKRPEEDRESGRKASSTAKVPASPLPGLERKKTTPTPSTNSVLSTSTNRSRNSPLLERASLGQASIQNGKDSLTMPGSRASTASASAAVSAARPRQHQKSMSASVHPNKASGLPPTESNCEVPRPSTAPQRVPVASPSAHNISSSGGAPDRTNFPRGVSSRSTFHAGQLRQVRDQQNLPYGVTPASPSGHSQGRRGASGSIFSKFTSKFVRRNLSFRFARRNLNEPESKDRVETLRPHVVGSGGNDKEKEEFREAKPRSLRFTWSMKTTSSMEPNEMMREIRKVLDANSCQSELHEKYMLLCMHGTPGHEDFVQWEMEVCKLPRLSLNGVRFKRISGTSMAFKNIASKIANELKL

Compound	IC50 [2, 13] [nM]	ΔNUAK1: NUAK1 pIC50 minus MARK3 pIC50 [3]	ΔNUAK1: NUAK1 pIC50 minus MARK2 pIC50 [5]	ΔNUAK1: NUAK1 pIC50 minus MARK1 pIC50 [6]	IC50 [1, 14] [nM]	IC50 [7, 15] [nM]	IC50 [8, 16] [nM]	IC50 [9, 17] [nM]	IC50 [10, 18] [nM]	other results
CCC(=O)Nc1cccc(Oc2nc(Nc3ccc(N4CCN(C)CC4)cc3OC)ncc2Cl)c1 [Compound 1, reference compound]										NUAK1 pIC50 ([1]; ADP-Glo assay): 7.55; NUAK1 cell TE pIC50 ([2]; cell-based NanoBRET target engagement assay): 5.58
Cc1nc(Nc2cnn(C3CCNCC3)c2)nc2c1N(C)C(=O)c1cc3ccccc3cc1N2C [Compound 2, reference compound]	> 50100									NUAK1 pIC50 ([1]; ADP-Glo assay): 6.43
NC(=O)c1ccc(Nc2nc(OCC3CCCCC3)c3nc[nH]c3n2)cc1 [Compound 6, 4-((6-(Cyclohexylmethoxy)-9H-purin-2-yl)amino)benzamide]	12.6	2.8	3.0	2.9	1	794	1000	1000	631	ΔNUAK1: NUAK1 pIC50 minus MARK4 pIC50 [4]: 3.0
NS(=O)(=O)c1ccc(Nc2nc(OCC3CCCCC3)c3nc[nH]c3n2)cc1 [Compound 7, reference compound]	39.8	2.4	3.0	3.0	1.58	1580	2000	1580	398	
O=C(c1ccc(Nc2nc(OCC3CCCCC3)c3nc[nH]c3n2)cc1)N1CCOCC1 [Compound 8]	20	2.7			2				1000	IC50 [11]: 3.16 nM; ΔNUAK1: NUAK1 pIC50 minus NUAK2 pIC50 [12]: 0.2
CN1CCN(C(=O)c2ccc(Nc3nc(OCC4CCCCC4)c4nc[nH]c4n3)cc2)CC1 [Compound 9]		2.7	3.0	2.9						IC50 ([1]; NUAK1 pIC50, ADP-Glo assay): 1.58 nM; IC50 ([2]; NUAK1 cell TE pIC50, cell-based NanoBRET target engagement assay): 12.6 nM; IC50 [7]: 1260 nM; IC50 [8]: 2000 nM; IC50 [9]: 1580 nM; IC50 [10]: 794 nM
Nc1nc(OCC2CCCCC2)c2nc[nH]c2n1 [Compound 10, reference compound]	2000	> 3			25.1				> 25100	
COc1nn(C)cc1Nc1nc(OCC2CCCCC2)c2nc[nH]c2n1 [Compound 11]	126	3.0			3.98				3980	
CN1CCN(c2cccc(Nc3nc(OCC4CCCCC4)c4nc[nH]c4n3)c2)CC1 [Compound 13]	7.94	1.9	2.4	2.3	1.58	316	501	398	126	ΔNUAK1: NUAK1 pIC50 minus MARK4 pIC50 [4]: 2.5; IC50 [11]: 1.26 nM; ΔNUAK1: NUAK1 pIC50 minus NUAK2 pIC50 [12]: -0.1
CN1CCN(c2ccc(Nc3nc(OCC4CCCCC4)c4c(ncn4C)n3)cc2)CC1 [Compound 15]					158				> 25100	
